Assay results as given in patent US6930203B2, “Gelling agents or thickeners” (Applied NanoSystems B.V., priority 2001, dated 2005).

Assay: Solvent scope of N,N′-dialkylaldaramides (1%) or N,N′-dialkylpentaramides (1%): gelation/solubility behaviour in solvents
Assay type: physicochemical
Design: key: g = gelation; s = soluble; p = precipitates; c = crystallizes; ns = not soluble; v = viscous; g* = unstable gel, precipitates; cg = crystalline gel
Settings: 1% gelling agent; 1,2-dichloroethane
From the text: It will be understood that the use of the present gelling agents or thickeners to prepare a gel or to thicken a composition is also encompassed by the invention. As is well known, gelling behavior of compounds or compositions is highly unpredictable. […] Preferably, the gelling phenomenon is thermo reversible.
Preferred examples include aromatic and nonaromatic hydrocarbons, alcohols, ethers, esters, aldehydes, alkanoic acids, epoxides, amines, halogenated hydrocarbons, silicon oils, vegetable oils, phosphoric esters, sulfoxides, water and mixtures thereof. In order to obtain a gel, the gelling agent or thickener is preferably mixed with the composition to be transformed to a gel in an amount of between 0.01 and 50 wt. %, based on the weight of the composition. In a preferred embodiment, the mixture of the gelling agent or thickener and the composition is heated to allow for an even better gel formation or thickening. Typically, the heating will involve raising the temperature of the mixture to about 30-175° C. until a clear solution is obtained. In an alternative embodiment, the gelling agent is first dissolved in a polar or apolar solvent and then added to or sprayed into a composition or solvent to be converted into a gel.
Solvent scope of N,N′-dialkylaldaramides (1%) or N,N′-dialkylpentaramides (1%) 1-24 refers to the compounds prepared in Examples 1-23)

Compound	Gelation/solubility behaviour in 1,2-dichloroethane
CCCCNC(=O)[C@@H](O)[C@@H](O)[C@H](O)[C@@H](O)C(=O)NCCCC [Example 1, dibutyl D-glucaramicle]	ns
CCCCNC(=O)[C@@H](O)[C@@H](O)[C@H](O)[C@H](O)C(=O)NCCCC [Example 2, dibutyl D-mannaramide]	Ns
CCCCNC(=O)[C@@H](O)[C@H](O)[C@H](O)[C@@H](O)C(=O)NCCCC [Example 3, dibutyl galactaramide]	ns
O=C(NC1CCCCC1)[C@@H](O)[C@@H](O)[C@@H](O)C(=O)NC1CCCCC1 [Example 4, dicyclohexyl D-ribaramide]	s
CCCCCCCCNC(=O)[C@@H](O)[C@@H](O)[C@H](O)[C@@H](O)C(=O)NCCCCCCCC [Example 8, dioctyl D-glucaramide]	ns
CCCCCCCCNC(=O)[C@@H](O)[C@@H](O)[C@H](O)[C@H](O)C(=O)NCCCCCCCC [Example 9, dioctyl D-mannaramide]	ns

Same assay, conditions: 1% gelling agent; 2-octanol

Compound	Gelation/solubility behaviour in 2-octanol
CCCCNC(=O)[C@@H](O)[C@@H](O)[C@H](O)[C@H](O)C(=O)NCCCC [Example 2, dibutyl D-mannaramide]	Ns
CCCCNC(=O)[C@@H](O)[C@H](O)[C@H](O)[C@@H](O)C(=O)NCCCC [Example 3, dibutyl galactaramide]	ns
O=C(NC1CCCCC1)[C@@H](O)[C@@H](O)[C@@H](O)C(=O)NC1CCCCC1 [Example 4, dicyclohexyl D-ribaramide]	p
CCCCCCCCNC(=O)[C@@H](O)[C@@H](O)[C@H](O)[C@@H](O)C(=O)NCCCCCCCC [Example 8, dioctyl D-glucaramide]	ns
CCCCCCCCNC(=O)[C@@H](O)[C@@H](O)[C@H](O)[C@H](O)C(=O)NCCCCCCCC [Example 9, dioctyl D-mannaramide]	ns

Same assay, conditions: 1% gelling agent; 2-propanol

Compound	Gelation/solubility behaviour in 2-propanol
CCCCNC(=O)[C@@H](O)[C@H](O)[C@H](O)[C@@H](O)C(=O)NCCCC [Example 3, dibutyl galactaramide]	c
O=C(NC1CCCCC1)[C@@H](O)[C@@H](O)[C@@H](O)C(=O)NC1CCCCC1 [Example 4, dicyclohexyl D-ribaramide]	p
CCCCCCCCNC(=O)[C@@H](O)[C@@H](O)[C@H](O)[C@@H](O)C(=O)NCCCCCCCC [Example 8, dioctyl D-glucaramide]	c
CCCCCCCCNC(=O)[C@@H](O)[C@@H](O)[C@H](O)[C@H](O)C(=O)NCCCCCCCC [Example 9, dioctyl D-mannaramide]	c

Same assay, conditions: 1% gelling agent; Cyclohexane

Compound	Gelation/solubility behaviour in Cyclohexane
CCCCNC(=O)[C@@H](O)[C@@H](O)[C@H](O)[C@@H](O)C(=O)NCCCC [Example 1, dibutyl D-glucaramicle]	ns
CCCCNC(=O)[C@@H](O)[C@@H](O)[C@H](O)[C@H](O)C(=O)NCCCC [Example 2, dibutyl D-mannaramide]	Ns
CCCCNC(=O)[C@@H](O)[C@H](O)[C@H](O)[C@@H](O)C(=O)NCCCC [Example 3, dibutyl galactaramide]	ns
O=C(NC1CCCCC1)[C@@H](O)[C@@H](O)[C@@H](O)C(=O)NC1CCCCC1 [Example 4, dicyclohexyl D-ribaramide]	ns
CCCCCCCCNC(=O)[C@@H](O)[C@@H](O)[C@H](O)[C@@H](O)C(=O)NCCCCCCCC [Example 8, dioctyl D-glucaramide]	ns
CCCCCCCCNC(=O)[C@@H](O)[C@@H](O)[C@H](O)[C@H](O)C(=O)NCCCCCCCC [Example 9, dioctyl D-mannaramide]	ns

Same assay, conditions: 1% gelling agent; Dimethylsulfoxide

Compound	Gelation/solubility behaviour in Dimethylsulfoxide
CCCCNC(=O)[C@@H](O)[C@H](O)[C@H](O)[C@@H](O)C(=O)NCCCC [Example 3, dibutyl galactaramide]	s
O=C(NC1CCCCC1)[C@@H](O)[C@@H](O)[C@@H](O)C(=O)NC1CCCCC1 [Example 4, dicyclohexyl D-ribaramide]	s
CCCCCCCCNC(=O)[C@@H](O)[C@@H](O)[C@H](O)[C@@H](O)C(=O)NCCCCCCCC [Example 8, dioctyl D-glucaramide]	s
CCCCCCCCNC(=O)[C@@H](O)[C@@H](O)[C@H](O)[C@H](O)C(=O)NCCCCCCCC [Example 9, dioctyl D-mannaramide]	c

Same assay, conditions: 1% gelling agent; Ethanol

Compound	Gelation/solubility behaviour in Ethanol
CCCCNC(=O)[C@@H](O)[C@H](O)[C@H](O)[C@@H](O)C(=O)NCCCC [Example 3, dibutyl galactaramide]	c
O=C(NC1CCCCC1)[C@@H](O)[C@@H](O)[C@@H](O)C(=O)NC1CCCCC1 [Example 4, dicyclohexyl D-ribaramide]	s
CCCCCCCCNC(=O)[C@@H](O)[C@@H](O)[C@H](O)[C@@H](O)C(=O)NCCCCCCCC [Example 8, dioctyl D-glucaramide]	c
CCCCCCCCNC(=O)[C@@H](O)[C@@H](O)[C@H](O)[C@H](O)C(=O)NCCCCCCCC [Example 9, dioctyl D-mannaramide]	c

Same assay, conditions: 1% gelling agent; Hexadecane

Compound	Gelation/solubility behaviour in Hexadecane
CCCCNC(=O)[C@@H](O)[C@@H](O)[C@H](O)[C@@H](O)C(=O)NCCCC [Example 1, dibutyl D-glucaramicle]	ns
CCCCNC(=O)[C@@H](O)[C@@H](O)[C@H](O)[C@H](O)C(=O)NCCCC [Example 2, dibutyl D-mannaramide]	Ns
CCCCNC(=O)[C@@H](O)[C@H](O)[C@H](O)[C@@H](O)C(=O)NCCCC [Example 3, dibutyl galactaramide]	ns
O=C(NC1CCCCC1)[C@@H](O)[C@@H](O)[C@@H](O)C(=O)NC1CCCCC1 [Example 4, dicyclohexyl D-ribaramide]	ns
CCCCCCCCNC(=O)[C@@H](O)[C@@H](O)[C@H](O)[C@@H](O)C(=O)NCCCCCCCC [Example 8, dioctyl D-glucaramide]	ns
CCCCCCCCNC(=O)[C@@H](O)[C@@H](O)[C@H](O)[C@H](O)C(=O)NCCCCCCCC [Example 9, dioctyl D-mannaramide]	ns

Same assay, conditions: 1% gelling agent; Toluene

Compound	Gelation/solubility behaviour in Toluene
CCCCNC(=O)[C@@H](O)[C@@H](O)[C@H](O)[C@@H](O)C(=O)NCCCC [Example 1, dibutyl D-glucaramicle]	ns
CCCCNC(=O)[C@@H](O)[C@@H](O)[C@H](O)[C@H](O)C(=O)NCCCC [Example 2, dibutyl D-mannaramide]	Ns
CCCCNC(=O)[C@@H](O)[C@H](O)[C@H](O)[C@@H](O)C(=O)NCCCC [Example 3, dibutyl galactaramide]	ns
O=C(NC1CCCCC1)[C@@H](O)[C@@H](O)[C@@H](O)C(=O)NC1CCCCC1 [Example 4, dicyclohexyl D-ribaramide]	p
CCCCCCCCNC(=O)[C@@H](O)[C@@H](O)[C@H](O)[C@@H](O)C(=O)NCCCCCCCC [Example 8, dioctyl D-glucaramide]	ns
CCCCCCCCNC(=O)[C@@H](O)[C@@H](O)[C@H](O)[C@H](O)C(=O)NCCCCCCCC [Example 9, dioctyl D-mannaramide]	ns

Same assay, conditions: 1% gelling agent; Water

Compound	Gelation/solubility behaviour in Water
CCCCNC(=O)[C@@H](O)[C@@H](O)[C@H](O)[C@@H](O)C(=O)NCCCC [Example 1, dibutyl D-glucaramicle]	ns
CCCCNC(=O)[C@@H](O)[C@@H](O)[C@H](O)[C@H](O)C(=O)NCCCC [Example 2, dibutyl D-mannaramide]	Ns
CCCCNC(=O)[C@@H](O)[C@H](O)[C@H](O)[C@@H](O)C(=O)NCCCC [Example 3, dibutyl galactaramide]	ns
O=C(NC1CCCCC1)[C@@H](O)[C@@H](O)[C@@H](O)C(=O)NC1CCCCC1 [Example 4, dicyclohexyl D-ribaramide]	ns
CCCCCCCCNC(=O)[C@@H](O)[C@@H](O)[C@H](O)[C@@H](O)C(=O)NCCCCCCCC [Example 8, dioctyl D-glucaramide]	ns
CCCCCCCCNC(=O)[C@@H](O)[C@@H](O)[C@H](O)[C@H](O)C(=O)NCCCCCCCC [Example 9, dioctyl D-mannaramide]	ns

Same assay, conditions: 1% gelling agent; n-butylacetate

Compound	Gelation/solubility behaviour in n-butylacetate
CCCCNC(=O)[C@@H](O)[C@@H](O)[C@H](O)[C@@H](O)C(=O)NCCCC [Example 1, dibutyl D-glucaramicle]	ns
CCCCNC(=O)[C@@H](O)[C@@H](O)[C@H](O)[C@H](O)C(=O)NCCCC [Example 2, dibutyl D-mannaramide]	Ns
CCCCNC(=O)[C@@H](O)[C@H](O)[C@H](O)[C@@H](O)C(=O)NCCCC [Example 3, dibutyl galactaramide]	ns
O=C(NC1CCCCC1)[C@@H](O)[C@@H](O)[C@@H](O)C(=O)NC1CCCCC1 [Example 4, dicyclohexyl D-ribaramide]	p
CCCCCCCCNC(=O)[C@@H](O)[C@@H](O)[C@H](O)[C@@H](O)C(=O)NCCCCCCCC [Example 8, dioctyl D-glucaramide]	ns
CCCCCCCCNC(=O)[C@@H](O)[C@@H](O)[C@H](O)[C@H](O)C(=O)NCCCCCCCC [Example 9, dioctyl D-mannaramide]	ns

Same assay, conditions: 1% gelling agent; p-xylene

Compound	Gelation/solubility behaviour in p-xylene
CCCCNC(=O)[C@@H](O)[C@@H](O)[C@H](O)[C@@H](O)C(=O)NCCCC [Example 1, dibutyl D-glucaramicle]	ns
CCCCNC(=O)[C@@H](O)[C@@H](O)[C@H](O)[C@H](O)C(=O)NCCCC [Example 2, dibutyl D-mannaramide]	Ns
CCCCNC(=O)[C@@H](O)[C@H](O)[C@H](O)[C@@H](O)C(=O)NCCCC [Example 3, dibutyl galactaramide]	ns
O=C(NC1CCCCC1)[C@@H](O)[C@@H](O)[C@@H](O)C(=O)NC1CCCCC1 [Example 4, dicyclohexyl D-ribaramide]	p
CCCCCCCCNC(=O)[C@@H](O)[C@@H](O)[C@H](O)[C@@H](O)C(=O)NCCCCCCCC [Example 8, dioctyl D-glucaramide]	ns
CCCCCCCCNC(=O)[C@@H](O)[C@@H](O)[C@H](O)[C@H](O)C(=O)NCCCCCCCC [Example 9, dioctyl D-mannaramide]	ns
